Measured values published in US7425537B2, “SH2 domain binding inhibitors” (The United States of America as represented by the …, priority 2000, dated 2008).

Experiments:
c-Met-Grb2 interaction = target: T1, c-Met-Grb2 interaction (Mus musculus, UniProt Q60631); assay: c-Met-Grb2 co-immunoprecipitation/immunoblot in intact 32D c-met cells after HGF/NK1 stimulation; type: cell-based, murine; settings: 32D c-met cells pretreated 16 h with 30 nM or 300 nM prior to HGF/NK1 stimulation
T1 construct: endogenous in cells; host or cells: murine 32D c-met cells
Description: To characterize the time period and dose which the Grb2 SH2 domain inhibitor (antagonist) compound of formula 4 enters intact cells, the murine IL-3-dependent cell line 32D c-met was used. The effects of the inhibitor on c-Met-Grb2 interaction was examined by co-immunoprecipitation/immunoblot analysis. Cells were cultured in RPMI 1640+15% FBS and 5% WEHI-3B conditioned medium. Intact 32Dc-met cells were treated with different amount (3, 30, 300 nM) of the compound for 1, 2, 4, and 16 h, then briefly stimulated with HGF/NK1 for 10 minutes before lysis, immunoprecipitated with anti-Grb2 antibodies (Santa Cruz), and immunoblotting with anti-c-Met (Santa Cruz), or anti-Grb2 (Transduction Lab). HGF/NK1 stimulated co-immunoprecipitation of the 145 kDa c-Met beta subunit with Grb2. When cells were pretreated for 16 h with 30 nM or 300 nM compound of formula 4 prior to HGF/NK1 stimulation, the amount of HGF receptor that was co-immunoprecipitated with Grb2 was reduced by approximately 50%.

[1] = system: erbB-2 driven breast cancer cells; assay: Assay of cell proliferation (direct cell counting); type: cell-based; settings: FIG. 26, read-out: IC50, cell growth inhibition

T1 sequence (Q60631 whole entry): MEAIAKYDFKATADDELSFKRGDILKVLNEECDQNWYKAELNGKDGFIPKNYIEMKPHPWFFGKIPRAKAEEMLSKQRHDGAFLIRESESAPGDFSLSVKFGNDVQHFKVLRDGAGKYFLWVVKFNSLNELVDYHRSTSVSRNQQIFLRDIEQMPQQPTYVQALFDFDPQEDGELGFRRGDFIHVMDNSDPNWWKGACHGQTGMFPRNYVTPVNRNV

Reduction of amount of HGF receptor co-immunoprecipitated with Grb2 (c-Met-Grb2 interaction)	melting point	IC50 [1] [nM]	Structure (SMILES)
approximately 50%	–	–	NC(=O)C[C@@H]1NC(=O)C2(CCCCC2)NC(=O)C[C@@H](c2ccc(CP(=O)(O)O)cc2)C=CC[C@@H](Cc2cccc3ccccc23)CNC1=O [Compound 4a, 2-[(9S, 13S, 17R)-8, 11, 20-triaza-13-(naphthylmethyl)-7, 10, 19-trioxo-17-[4-(phosphonomethyl)phenyl]spiro[5.14]icos-15-en-9-yl]acetamide]
–	260 °C (dec.)	< 1000	NC(=O)C[C@@H]1NC(=O)C2(CCCCC2)NC(=O)[C@@H](CC(=O)O)[C@@H](c2ccc(CP(=O)(O)O)cc2)/C=C/C[C@@H](Cc2cccc3ccccc23)CNC1=O [Compound 233, 2-[(9S, 10S, 14S, 18S)-7, 16, 19-triaza-18-(carbamoylmethyl)-14-(naphthylmethyl)-8,17,20-trioxo-10-[4-(phosphonomethyl)phenyl]spiro[5.14]icos-11-en-9-yl]acetic acid]
